From patent publication US12195427B2, “MASP-2 inhibitors and methods of use” (priority 2018, dated 2025)
Structures can show the parent of a compound that is named as a salt.

Molecular target: MASP-2 CCP2-SP (Homo sapiens (Human), UniProt O00187)
Assay: MASP-2 co-crystallization, X-ray crystallography and structure analysis (H-bonds, van der Waals contacts);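 as to Ligand-pharmacophore element distance, pharmacophore element C2: distance from averaged pharmacophore element to bound ligand; missing value means element absent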;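 as to Ligand-pharmacophore element distance, pharmacophore element C3: distance from averaged pharmacophore element to bound ligand; missing value means element absent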;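 as to Ligand-pharmacophore element distance, pharmacophore element C4: distance from averaged pharmacophore element to bound ligand; missing value means element absent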;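 as to Ligand-pharmacophore element distance, pharmacophore element C5: distance from averaged pharmacophore element to bound ligand; missing value means element absent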
Design: van der Waals contact distance, MASP-2 HIS 483 atom CD2 / van der Waals contact distance, MASP-2 HIS 483 atom NE2 / van der Waals contact distance, SER 654 C to compound atom / van der Waals contact distance, SER 654 O to compound atom / van der Waals contact distance, TRP 655 C to compound atom / van der Waals contact distance, MASP-2 GLY 528 atom CA / van der Waals contact distance TRP 655 atom CZ3 / van der Waals contact distance TRP 655 atom N / van der Waals contact distance TRP 655 atom CE3 / van der Waals contact distance GLY 656 atom C / van der Waals contact distance GLY 656 atom CA / van der Waals contact distance GLY 656 atom O / van der Waals contact distance, MASP-2 TYR 607 atom CD1 / van der Waals contact distance, MASP-2 PRO 606 atom O / d(C3,CA1) / d(CA1,N1)2 / d(H4,O1) / d(H4,O2) / d(O1,O2) / d(CA1,O2) / d(CA6,O1) / d(CA6,O2) / d(CA1,C5) / d(O2,H3) / d(N2,C2) / d(CA5,N2) / d(N2,C4) / d(N2,C6) / d(N2,CA3) / d(N2,O3) / d(O4,H2): unit not given beside the values
Conditions: for Ligand-pharmacophore element distance, pharmacophore element C2 / Ligand-pharmacophore element distance, pharmacophore element C3 / Ligand-pharmacophore element distance, pharmacophore element C4 / Ligand-pharmacophore element distance, pharmacophore element C5 / Ligand-pharmacophore element distance, pharmacophore element C6 / Ligand-pharmacophore element distance, pharmacophore element C7 / Ligand-pharmacophore element distance, pharmacophore element CA1 / Ligand-pharmacophore element distance, pharmacophore element CA2 / Ligand-pharmacophore element distance, pharmacophore element CA3 / Ligand-pharmacophore element distance, pharmacophore element CA4 / Ligand-pharmacophore element distance, pharmacophore element CA5 / Ligand-pharmacophore element distance, pharmacophore element CA6: Table A4-1
Outline: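 Contacts and H-bonds come from partially refined soaked-crystal structures of recombinant human CCP2-SP made in E. coli, solved by molecular replacement against 1Q3X fragments. Where several ligand poses appeared, only one was analysed; listed nonbonded contacts may include possible H-bond pairings.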

[1] = Table A5-1 pharmacophore: distance between elements, S2/S1 region
[2] = Table A5-2 pharmacophore distance, S3/S4 region
[3] = Table A7-1, between pharmacophore elements of the bound compound
[4] = Table A7-2, between pharmacophore elements of the bound compound
[5] = Table A8-6, nearest protein atom in cell to the left

MASP-2 CCP2-SP, sequence (O00187 445-686): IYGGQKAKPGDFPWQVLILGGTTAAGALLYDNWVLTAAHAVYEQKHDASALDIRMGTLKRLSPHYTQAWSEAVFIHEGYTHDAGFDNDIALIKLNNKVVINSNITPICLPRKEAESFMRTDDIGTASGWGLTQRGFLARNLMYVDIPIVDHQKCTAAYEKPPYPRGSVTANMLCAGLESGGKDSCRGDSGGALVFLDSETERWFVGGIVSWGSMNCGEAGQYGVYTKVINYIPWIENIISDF
MASP-2 CCP2-SP, sequence (O00187 364-432 partner): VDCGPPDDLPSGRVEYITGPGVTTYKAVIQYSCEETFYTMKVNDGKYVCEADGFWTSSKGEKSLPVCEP

## CC(NC(=O)C(CCc1ccccc1)NCCCc1ccc(O)cc1)C(=O)NCc1ccc(C(=N)N)cc1.Cl.Cl (stereo not drawn) [1145_A]
  Ligand-pharmacophore element distance, pharmacophore element C2: 0
  Ligand-pharmacophore element distance, pharmacophore element C3: 0
  Ligand-pharmacophore element distance, pharmacophore element C4: 0
  Ligand-pharmacophore element distance, pharmacophore element C5: 0
  Ligand-pharmacophore element distance, pharmacophore element C6: 0
  Ligand-pharmacophore element distance, pharmacophore element C7: 0
  Ligand-pharmacophore element distance, pharmacophore element CA1: 0.47
  Ligand-pharmacophore element distance, pharmacophore element CA2: 0.41
  Ligand-pharmacophore element distance, pharmacophore element CA3: 1.22
  Ligand-pharmacophore element distance, pharmacophore element CA4: 0
  Ligand-pharmacophore element distance, pharmacophore element CA5: 0
  Ligand-pharmacophore element distance, pharmacophore element CA6: 0
[1]
  d(CA1,N1): 3.54
  d(CA1,O1): 4.42
  d(CA1,O2): 4.42
  d(H4,O1): 4.89
  d(H4,O2): 4.48
  d(O1,O2): 3.28
[2]
  d(N2,CA2): 5.91
  d(N2,CA3): 5.59
  d(N2,H1): 8.64
  d(N2,O3): 7.97
  d(O2,H3): 5.36
  d(O2,N2): 2.77
Table A6-1 pharmacophore angle
  a(CA1, O1, O2): 111.73
  a(O1, O2, H4): 139.31
Table A6-1 pharmacophore angle, all compounds with protonatable center N1 except Methyl-amino-pyridine
  A(N1, CA1, O1) a): 162.28
Table A6-2 pharmacophore angle
  a(O1, O2, H3): 150.25
  a(O1, O2, N2): 136.24
  a(O2, N2, CA2): 153.28
  a(O2, N2, CA3): 161.48
  a(O2, N2, H1): 168.81
  a(O2, N2, O3): 168.41
[3]
  Pharmacophore torsion angle a(H4, O1, O2, H3): 48.71
  Pharmacophore torsion angle a(H4, O1, O2, N2): 124.15
  Pharmacophore torsion angle a(N1, CA1, O2, H4): −128.41
  Pharmacophore torsion angle a(O1, H4, O2, CA1): −59.90
[4]
  Pharmacophore torsion angle a(O1, O2, N2, CA2): 140.87
  Pharmacophore torsion angle a(O1, O2, N2, CA3): −15.65
  Pharmacophore torsion angle a(O1, O2, N2, H1): −17.10
  Pharmacophore torsion angle a(O1, O2, N2, O3): −10.98

## C[C@H](NC(=O)[C@H]1C[C@@H](c2ccccc2)CCN1)C(=O)NCc1cc(Cl)ccc1O.Cl [1078_3]
  Ligand-pharmacophore element distance, pharmacophore element C2: 0.43
  Ligand-pharmacophore element distance, pharmacophore element C3: 0
  Ligand-pharmacophore element distance, pharmacophore element C4: 0
  Ligand-pharmacophore element distance, pharmacophore element C5: 0.45
  Ligand-pharmacophore element distance, pharmacophore element C6: 0
  Ligand-pharmacophore element distance, pharmacophore element C7: 0
  Ligand-pharmacophore element distance, pharmacophore element CA1: 1.53
  Ligand-pharmacophore element distance, pharmacophore element CA2: 0.27
  Ligand-pharmacophore element distance, pharmacophore element CA3: 0
  Ligand-pharmacophore element distance, pharmacophore element CA4: 0
  Ligand-pharmacophore element distance, pharmacophore element CA5: 0
  Ligand-pharmacophore element distance, pharmacophore element CA6: 0
[1]
  d(CA1,C5): 3.13
  d(CA1,O1): 4.44
  d(CA1,O2): 4.54
  d(CA1,O4): 2.75
  d(H4,O1): 3.13
  d(H4,O2): 3.61
  d(O1,O2): 3.17
  d(O4,H2): 0.98
[2]
  d(N2,C2): 1.45
  d(N2,CA2): 5.70
  d(O2,H3): 2.05
  d(O2,N2): 2.79
Table A6-1 pharmacophore angle
  a(C5, CA1, O1): 162.08
  a(CA1, O1, O2): 112.44
  a(CA1, O4, H2): 128.44
  a(O1, CA1, O4): 67.41
  a(O1, O2, H4): 124.44
Table A6-2 pharmacophore angle
  a(O1, O2, H3): 132.07
  a(O1, O2, N2): 145.54
  a(O2, N2, C2): 126.01
  a(O2, N2, CA2): 154.83
[3]
  Pharmacophore torsion angle a(C5, CA1, O1, H4): −5.62
  Pharmacophore torsion angle a(H4, O1, O2, H3): −160.53
  Pharmacophore torsion angle a(H4, O1, O2, N2): −166.69
  Pharmacophore torsion angle a(O1, H4, O2, CA1): −82.33
  Pharmacophore torsion angle a(O1, O2, N2, C2): 132.95
[4]
  Pharmacophore torsion angle a(O1, O2, N2, CA2): 140.71

## C[C@H](NC(=O)[C@H](N)CCc1ccccc1)C(=O)NCc1ccc(N)nc1.Cl.Cl [1007_1]
  Ligand-pharmacophore element distance, pharmacophore element C2: 0
  Ligand-pharmacophore element distance, pharmacophore element C3: 0
  Ligand-pharmacophore element distance, pharmacophore element C4: 0
  Ligand-pharmacophore element distance, pharmacophore element C5: 0
  Ligand-pharmacophore element distance, pharmacophore element C6: 0
  Ligand-pharmacophore element distance, pharmacophore element C7: 0
  Ligand-pharmacophore element distance, pharmacophore element CA1: 0.35
  Ligand-pharmacophore element distance, pharmacophore element CA2: 0.77
  Ligand-pharmacophore element distance, pharmacophore element CA3: 0
  Ligand-pharmacophore element distance, pharmacophore element CA4: 0
  Ligand-pharmacophore element distance, pharmacophore element CA5: 0
  Ligand-pharmacophore element distance, pharmacophore element CA6: 0
[1]
  d(CA1,N1)2: 1.38
  d(CA1,O1): 4.39
  d(CA1,O2): 3.86
  d(H4,O1): 3.59
  d(H4,O2): 2.73
  d(O1,O2): 3.55
[2]
  d(N2,CA2): 6.02
  d(O2,H3): 4.41
  d(O2,N2): 2.79
Table A6-1 pharmacophore angle
  a(CA1, O1, O2): 107.37
  a(O1, O2, H4): 113.31
Table A6-1 pharmacophore angle, Methyl-amino-pyridine compounds
  a(N1, CA1, O1) b): 174.46
Table A6-2 pharmacophore angle
  a(O1, O2, H3): 146.43
  a(O1, O2, N2): 138.95
  a(O2, N2, CA2): 154.71
[3]
  Pharmacophore torsion angle a(H4, O1, O2, H3): 50.93
  Pharmacophore torsion angle a(H4, O1, O2, N2): 137.94
  Pharmacophore torsion angle a(N1, CA1, O1, H4): 39.07
  Pharmacophore torsion angle a(O1, H4, O2, CA1): −94.99
[4]
  Pharmacophore torsion angle a(O1, O2, N2, CA2): 128.23
Table A8-6, 6th residue column, nearest protein atom in cell to the left
  Pharmacophore protein distance to MET_658 (first MET_658 column): 2.61
Table A8-6, 9th residue column, nearest protein atom in cell to the left
  Pharmacophore protein distance to MET_658 (second MET_658 column): 3.25
[5]
  Pharmacophore protein distance to GLY_528: 3.76
  Pharmacophore protein distance to PHE_529: 3.15
  Pharmacophore protein distance to PRO_608: 3.15
  Pharmacophore protein distance to SER_611: 2.06
Table A8-6, pharmacophore elements C6, CA3, O3, H1, nearest protein atom in cell to the left
  Pharmacophore protein distance to TRP_655: 3.70

## C[C@H](NC(=O)[C@H](N)C1Cc2ccccc2C1)C(=O)NCc1ccc2c(N)nccc2c1 [compound 1088, (S)-2-((R)-2-Amino-2-(2,3-dihydro-1H-inden-2-yl)acetamido)-N-((1-aminoisoquinolin-6-yl)methyl)propanamide Dihydrochloride]
Table A1 (H-Bonds), ASP 627 OD1
  H-bond distance to MASP-2 ASP 627 atom OD1: 2.91
Table A1 (H-Bonds), ASP 627 OD2
  H-bond distance to MASP-2 ASP 627 atom OD2: 3.16
Table A1 (H-Bonds), GLY 656 N
  H-bond distance to MASP-2 GLY 656 atom N: 3.22
Table A1 (H-Bonds), SER 628 OG
  H-bond distance to MASP-2 SER 628 atom OG: 3.16
Table A1 (H-Bonds), SER 654 O
  H-bond distance to MASP-2 SER 654 atom O: 2.89
Table A2-4
  van der Waals contact distance, MASP-2 PRO 606 atom C: 3.89
  van der Waals contact distance, MASP-2 TYR 607 atom CD1: 3.82
Table A2-5: TYR 607 (CE1, CE2, OH), PRO 608 (CD, CG), SER 611 (CA)
  van der Waals contact distance, MASP-2 amino acid atom to compound atom: 3.73
Table A2-9, ARG 630, AA atoms CG, CZ
  van der Waals contact distance, MASP-2 amino acid atom to compound atom: 3.79
Table A2-14, MASP-2 SER 657 C, columns c12-c13 (inferred)
  van der Waals contact distance SER 657 atom C: 3.64
